Results taken from patent US8735425B2, “Tetrahydroisoquinoline derivative” (Daiichi Sankyo Company, Limited, priority 2008, dated 2014).

What was measured:
[1] = system: Male C57BL/6N mice; test: Triglyceride absorption suppression after fat loading (in vivo DGAT1 inhibitory effect); settings: Mus musculus, po; dose of 10 mg/kg or lower, orally administered, mice fasted overnight, plasma triglyceride after fat loading; read-out: Triglyceride absorption suppressive activity
Experimental: The DGAT1 enzyme is important for the digestion and absorption of triglycerides, and the inhibition of DGAT1 in the small intestine suppresses the absorption of triglycerides. The in vivo activity of its DGAT1 inhibitory effect was evaluated with the suppressed absorption of triglycerides after fat loading as an index. Male C57BL/6N mice (7-12 weeks old, body weight: 17-25 g, Charles River Laboratories Japan Inc.) fasted overnight were assigned to Vehicle group 1, Vehicle group 2, and each test compound group, to which a vehicle (0.5% methylcellulose) or each test compound (1 to 10 mg/kg) suspended in vehicle was orally administered (5 mL/kg). After a given time, a lipoprotein lipase inhibitor (Pluronic-F127: Sigma-Aldrich Corp., 1 g/kg, 20% by weight dissolved in saline) was intraperitoneally administered (5 mL/kg) to each group. Immediately thereafter, distilled water for the Vehicle group 1 or a 20% fat-containing emulation (Intralipid 20%: TERUMO CORP., Japan) for the Vehicle group 2 and the compound groups were orally administered thereto (0.2 mL/mouse). After a given time of 1 to 4 hours after administration, blood was collected from the tail vein or the right ventricle, and plasma was immediately separated and collected. Then, the triglyceride concentration in plasma was measured using a commercially available kit (Triglyceride E-Test Wako: Wako Pure Chemical Industries, Ltd.). In this method, the administration of the lipoprotein lipase inhibitor suppresses the hydrolysis of triglycerides in the blood such that the triglycerides are accumulated in the blood. These triglycerides are derived from two origins: exogenous triglycerides absorbed in the gastrointestinal tract and endogenous triglycerides released from the liver. The triglyceride absorption suppressive activity of each test compound was calculated based on the equation shown below by removing the influence of the endogenous triglycerides. In this context, each test compound was separately confirmed to have no influence on the concentration of the endogenous triglycerides.
Triglyceride absorption suppressive activity (%)=100−[(Triglyceride concentration of each test compound group)−(Triglyceride concentration of Vehicle group 1)]/[(Triglyceride concentration of Vehicle group 2)−(Triglyceride concentration of Vehicle group 1)]×100

[2] = molecular target: T1, DGAT1 enzyme (Homo sapiens, UniProt O75907); test: DGAT1 inhibitory activity test; type: biochemical; settings: test compound concentration of 0.05 μg/ml; read-out: Inhibitory Rate
T1 construct: made in house
T1 sequence (O75907 1-488): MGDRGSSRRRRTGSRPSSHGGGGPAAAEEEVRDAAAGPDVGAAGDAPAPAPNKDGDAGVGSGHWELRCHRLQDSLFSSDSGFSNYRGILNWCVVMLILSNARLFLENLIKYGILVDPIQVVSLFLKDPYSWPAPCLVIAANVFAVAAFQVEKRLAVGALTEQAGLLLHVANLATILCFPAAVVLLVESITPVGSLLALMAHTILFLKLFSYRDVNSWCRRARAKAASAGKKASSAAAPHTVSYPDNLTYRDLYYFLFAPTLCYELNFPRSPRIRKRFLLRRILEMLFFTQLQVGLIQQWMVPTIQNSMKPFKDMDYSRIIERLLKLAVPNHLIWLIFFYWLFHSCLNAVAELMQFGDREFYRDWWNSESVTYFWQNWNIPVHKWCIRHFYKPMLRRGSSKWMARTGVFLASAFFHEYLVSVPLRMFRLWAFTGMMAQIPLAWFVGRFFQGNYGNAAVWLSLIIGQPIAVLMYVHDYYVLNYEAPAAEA
Experimental: DGAT1 enzyme was prepared and stored according to the method described in US2007/0249620.
(2) DGAT1 Inhibitory Activity Test
A reaction solution having the following composition was incubated at room temperature (23° C.) for 30 minutes: 175 mM Tris-HCl (pH 8.0), 8 mM MgCl2, 1 mg/ml BSA, 0.3 mM 1,2-dioleoyl-sn-glycerol (10-fold concentration of EtOH solution, 10% added), 10 μM [^14C]-oleoyl-CoA (approximately 50 mCi/mmol), 0.5% Triton X-100, the DGAT1 enzyme (10 μg) obtained in Test Example 1(1), and a test compound or vehicle (DMSO/MeOH, 7:3 solution, 5% added), […] in total. A reaction stop solution ([…] consisting of isopropanol/1-heptane/water (80:20:2, v/v/v) was added to the reaction solution and stirred. Subsequently, water (30 μl) and 1-heptane (100 μl) were added thereto and stirred. The 1-heptane layer (50 μl) was spotted onto a TLC plate and developed with a developing solvent consisting of 1-hexane/diethyl ether/acetic acid (85:15:1, v/v/v). The radioactivity of the triglyceride fraction was quantified using BAS2000 Bio Image Analyzer (FUJIFILM) and compared with the control. The inhibitory activity of the test compound was calculated according to the formula shown below. In this context, the radioactivity at no reaction (0 minute incubation) was used as background. Inhibitory Rate=100−[(Radioactivity of sample supplemented with test compound)−(Background)]/[(Radioactivity of control)−(Background)]×100

Which inhibition in vivo at up to 10 mg/kg [1] does the source give for `COc1cccc(NC(=O)Nc2ccc3c(c2)CCN(C(=O)O[C@H]2CC[C@H](C(C)C(=O)O)CC2)C3)c1` (stereo partly drawn) [Example 104, trans-6-[3-(3-methoxy-phenyl)-ureido]-3,4-dihydro-1H-isoquinoline-2-carboxylic acid 4-(1-carboxy-ethyl)-cyclohexyl ester] here?
Its inhibition in vivo at up to 10 mg/kg is no less than 60%.

And the inhibition at 0.05 µg/mL [2]?
The inhibition at 0.05 µg/mL was no less than 50%.

With `O=C(O)C[C@H]1CC[C@H](OC(=O)N2CCc3cc(NC(=O)Nc4cccc(OC(F)F)c4)ccc3C2)CC1` [Example 51, trans-6-[3-(3-difluoromethoxy-phenyl)-ureido]-3,4-dihydro-1H-isoquinoline-2-carboxylic acid 4-carboxymethyl-cyclohexyl ester] as the compound, how does the inhibition in vivo at up to 10 mg/kg [1] read?
Its inhibition in vivo at up to 10 mg/kg is no less than 60%.

And the inhibition at 0.05 µg/mL [2]?
Its inhibition at 0.05 µg/mL is no less than 50%.

What does the source list for `CN(C(=O)N1CCc2cc(NC(=O)Nc3ccccc3F)ccc2C1)C1CCC(CC(=O)O)CC1` (centres unmarked) [Example 108, [4-({6-[3-(2-fluoro-phenyl)-ureido]-3,4-dihydro-1H-isoquinoline-2-carbonyl}-methyl-amino)-cyclohexyl]-acetic acid]?
inhibition in vivo at up to 10 mg/kg [1]: ≥ 60%; inhibition at 0.05 µg/mL [2]: ≥ 50%

With `CC(C)(C(=O)O)[C@H]1CC[C@H](OC(=O)N2CCc3cc(NC(=O)Nc4ccccc4F)ccc3C2)CC1` [Example 13, trans-6-[3-(2-fluoro-phenyl)-ureido]-3,4-dihydro-1H-isoquinoline-2-carboxylic acid 4-(carboxy-1-methyl-ethyl)-cyclohexyl ester] as the compound, how does the inhibition in vivo at up to 10 mg/kg [1] read?
Its inhibition in vivo at up to 10 mg/kg is no less than 60%.

And the inhibition at 0.05 µg/mL [2]?
Its inhibition at 0.05 µg/mL is no less than 50%.

Which inhibition in vivo at up to 10 mg/kg [1] does the source give for `O=C(Nc1ccc2c(c1)CCN(C(=O)O[C@H]1CC[C@H](C(=O)O)CC1)C2)Nc1ccccc1F` [Example 8, trans-6-[3-(2-fluoro-phenyl)-ureido]-3,4-dihydro-1H-isoquinoline-2-carboxylic acid 4-carboxy-cyclohexyl ester] here?
Its inhibition in vivo at up to 10 mg/kg is no less than 60%.

And the inhibition at 0.05 µg/mL [2]?
Its inhibition at 0.05 µg/mL is no less than 50%.

With `O=C(O)C=C1CCC(OC(=O)N2CCc3cc(NC(=O)Nc4ccccc4F)ccc3C2)CC1` (centres unmarked) [Example 11, 6-[3-(2-fluoro-phenyl)-ureido]-3,4-dihydro-1H-isoquinoline-2-carboxylic acid 4-carboxymethylene-cyclohexyl ester] as the compound, how does the inhibition in vivo at up to 10 mg/kg [1] read?
The inhibition in vivo at up to 10 mg/kg was no less than 60%.

And the inhibition at 0.05 µg/mL [2]?
The inhibition at 0.05 µg/mL was no less than 50%.

How did the inhibition in vivo at up to 10 mg/kg [1] turn out when `O=C(O)CC1=CCC(OC(=O)N2CCc3cc(NC(=O)Nc4ccccc4F)ccc3C2)CC1` (centres unmarked) [Example 12, 6-[3-(2-fluoro-phenyl)-ureido]-3,4-dihydro-1H-isoquinoline-2-carboxylic acid 4-carboxymethyl-cyclohex-3-enyl-ester] was run?
Its inhibition in vivo at up to 10 mg/kg is no less than 60%.

What about the inhibition at 0.05 µg/mL [2] of the same compound?
Its inhibition at 0.05 µg/mL is no less than 50%.

For `O=C(O)C[C@H]1CC[C@H](OC(=O)N2CCc3cc(NC(=O)Nc4cccc(C(F)(F)F)c4)ccc3C2)CC1` [Example 66, trans-6-[3-(3-trifluoromethyl-phenyl)-ureido]-3,4-dihydro-1H-isoquinoline-2-carboxylic acid 4-carboxymethyl-cyclohexyl ester], which inhibition in vivo at up to 10 mg/kg [1] is on record?
The inhibition in vivo at up to 10 mg/kg was no less than 60%.

What about the inhibition at 0.05 µg/mL [2] of the same compound?
The inhibition at 0.05 µg/mL was no less than 50%.

For `COc1ccc(F)c(NC(=O)Nc2ccc3c(c2)CCN(C(=O)O[C@H]2CC[C@H](CC(=O)O)CC2)C3)c1` [Example 60, trans-6-[3-(2-fluoro-5-methoxy-phenyl)-ureido]-3,4-dihydro-1H-isoquinoline-2-carboxylic acid 4-carboxymethyl-cyclohexyl ester], which inhibition in vivo at up to 10 mg/kg [1] is on record?
Its inhibition in vivo at up to 10 mg/kg is no less than 60%.

What about the inhibition at 0.05 µg/mL [2] of the same compound?
Its inhibition at 0.05 µg/mL is no less than 50%.

How did the inhibition in vivo at up to 10 mg/kg [1] turn out when `CC(C)NC(=O)Nc1ccc2c(c1)CCN(C(=O)O[C@H]1CC[C@H](CC(=O)O)CC1)C2` [Example 81, trans-6-(3-isopropyl-ureido)-3,4-dihydro-1H-isoquinoline-2-carboxylic acid 4-carboxymethyl-cyclohexyl ester] was run?
Its inhibition in vivo at up to 10 mg/kg is no less than 60%.

`O=C(Nc1ccc2c(c1)CCN(C(=O)O[C@H]1CC[C@H](CC(=O)OC[C@H](O)CO)CC1)C2)Nc1ccccc1F` [Example 46, trans-6-[3-(2-fluoro-phenyl)-ureido]-3,4-dihydro-1H-isoquinoline-2-carboxylic acid 4-((R)-2,3-dihydroxy-propoxycarbonylmethyl)-cyclohexyl ester] was tested. Which inhibition in vivo at up to 10 mg/kg [1] did it give?
Its inhibition in vivo at up to 10 mg/kg is no less than 60%.
